“Also recorded” adds a separate entry of the source. Counter-ions that a name gives are not always drawn. Like-named read-outs stand apart in the source and are kept apart here.

The test system of series [1] is Plasmodium berghei KBG 173. In words: animal or person. Format: in vivo, young ICR/HA Swiss mice. The following applies: for minimal effective dose: Plasmodium berghei, in Mus musculus; for suppressive activity in words: Rane mouse test; for ΔMST / Activity in words / Toxicity in words: 5 mice; for Activity in words / Toxicity in words: Rane, 20-640 mg/kg. From the text: Blood Schizonticidal Test (Mouse), University of Miami, Rane (suppressive)
This system is based on comparisons of responses to test compounds by Plasmodium berghei KBG 173 malaria in mice as expressed in mean survival times and the mean survival times of untreated controls. Thus, compounds noted as active produce increases in the survival times of the treated animals that are significant when compared with the survival times of untreated controls. Since an established disease is less sensitive to treatment than a disease in the early stages of development, treatment is withheld until the parasitemia is relatively high in order to insure a more reliable assay of activity and the selection of appropriate compounds for intensive preclinical studies.
Utilizing young ICR/HA Swiss mice and a standard inoculum of Plasmodium berghei KBG 173, it is possible to produce a uniform disease fatal to 100% of untreated animals within 6 to 8 days with a mean survival time of 6.2 days. Test animals weigh from 18 to 22 grams but weight variations in any given experimental or control group are confined to 2 to 3 grams. All animals in any given test are approximately of the same age. Animals on test are housed in metal-topped plastic cages, given a standard laboratory diet and water ad libitum.
Test animals receive an intraperitoneal injection of 0.5 ml of 1:100 dilution of heparinized heart's blood with a minimum of 90% parasitized cells (4×10^7 cells), drawn from donor mice infected one week earlier with Plasmodium berghei. The donor strain is maintained by weekly passages in separate groups of mice inoculated with a 0.5 ml of 1:500 dilution of heparinized heart's blood.
Test compounds are administered after dissolution or suspension in peanut oil. A single dose is given subcutaneously 72 hours after the mice are infected with Plasmodium berghei. At this time a 10-15 percent parasitemia has developed; the disease is well established but has not produced sufficient debility to alter the response of the host to toxic effects of the drug on test. Since treatment is withheld for three days to permit the infection to become well established and death occurs in untreated controls within 6 to 8 days, it is believed that this system presents a candidate compound with the maximum challenge. In order to check factors such as changes in the infectivity of Plasmodium berghei or in the susceptibility of the host or to detect technical errors, a group of infected animals treated with pyrimethamine at dose levels producing definite increases in survival time is included as a positive control in every experiment.
In each experiment test compounds are administered in graded doses. […] However, if an active drug is toxic for the host, its toxicity may become a limiting factor; continued increases in dose levels also increase the toxic effects and may result in the diminution of survival times. Deaths prior to the sixth day, when untreated controls begin to die, are regarded as non-parasitic and become the basis for the interpretation that the drug is toxic. Treated animals are kept under observation for 60 days. Survivors at the end of this period of time are considered as cured.
An increase of 100% in mean survival time is considered the minimum effective response for a candidate compound. In calculating mean survival time, toxic deaths and 60 day survivors are not included.

Series [2] relates to Plasmodium cynomolgi (strain B). Kind of series: Radical Curative Test in Rhesus Monkeys, SEATO Medical Research Laboratory. Format: in vivo, Indian rhesus monkeys. Particulars: for Radical Curative Activity, Cures (C): Table 1, Seato Rhesus; for Cures (C): Table 8, Seato. As to the method: Radical Curative Test in Rhesus Monkeys, SEATO Medical Research Laboratory, Bangkok,
This test is designed to evaluate the tissue schizonticidal (radical curative) activity of test compounds. Well-conditioned Indian rhesus monkeys of either sex weighing 2-4 Kg are utilized. Plasmodium cynomolgi (strain B) sporozoites are prepared by grinding heavily infected Anopheles dirus salivary glands in 1:1 monkey serum-saline vehicle.
Monkeys are infected by I.V. injection of 10^6 freshly isolated P. cynomolgi sporozoites on day 0. A rapidly rising parasitemia develops after a 7 to 9 day prepatient period, and administration of the test drug is initiated when the rising parasite count exceeds 5000 per mm^3 (typically day 10-12). Test drugs are administered orally (by nasogastric intubation) once daily for 7 consecutive days in aqueous solution or, if insoluble, in suspension in 0.3% methylcellulose solution. Chloroquine diphosphate (3.1 mg of base/kg orally per day) is always administered concurrently with the test drug for 7 days to eliminate blood schizonts. Thus any tissue schizonticidal activity of the test drug will always be apparent even if it lacks blood schizonticidal activity.
A vehicle control monkey and a positive drug control (primaquine) monkey are included in each group of inoculated monkeys.
The effect of the test drug is determined by counting blood parasites. Parasite counts are made daily through day 20, and every two days thereafter. Initially a clearance of blood parasites is observed due to the blood schizonticidal action of chloroquine. […] If there is no relapse within 20 days of the initial clearance of parasitemia, the monkey is splenectomized and its parasitemia followed for an additional 30 days. If there is no relapse within this period, the experiment is terminated and the monkey is considered "cured". Alternately, in some experiments, negative parasitemia was followed for 100 days without prior splenectomy. It has been determined that the splenectomy and non-splenectomy methods yield virtually identical results.
Primaquine diphosphate cures over 90% of monkeys in this test system when administered at a dose of 1.3 mg/kg of salt per day for 7 days ([…]) in combination with chloroquine.

The subject of series [3] is Chesson strain of P. vivax. Kind of series: Antimalarial activity against (trophozoite-induced) infections of the Chesson strain of P. vivax in the Aotus monkey. Format: in vivo.
The nature of series [4]: Acute toxicity in the rat by oral or intraperitoneal administration. The following applies: Rat.
The next series has as its system methemoglobin. It is filed as in vivo, Dog.
The next series concerns P. berghei yoelli. Kind of series: Causal prophylactic activity against sporozoite induced P. berghei yoelli in the mouse. Format: in vivo. Particulars: subcutaneous.
The mark [5] stands for this setting: Table 1, P. berghei, Rane Mouse Test, 160 mg/kg.
Setting [6] is: P. cynomolgi, 0.316 mg/kg (× 7).
Where [7] appears, read: text, listed as 5-(4-fluorophenoxy)-primaquine.
The mark [8] stands for this setting: text, listed as 5-(4-fluorophenoxy)primaquine.
The mark [9] stands for this setting: oral capsule, days 0-3, 3 mg/kg primaquine base per day or molar equivalent, means differ significantly (p <.05).

Description for methemoglobin: ^a Primaquine, Comparative Compound, or Compound X, were administered
orally by capsule for four days on days 0, 1, 2 and 3 at a dose of 3 mg/k
primaquine base per day or the molar equivalent.
^e Total methemoglobin production expressed as mg of MHb/ml of
blood/hr for a total of 2 days after administration of the first dose.
^f Area under the % methemoglobin versus time curve (AUC).

Take `COc1cc(NC(C)CCCN)c2nccc(C)c2c1` (stereo not drawn) [4-methylprimaquine diphosphate, 4-methylprimaquine]: the minimal effective dose in series [1] (read-out: active dose (active only at)) was determined as 160 mg/kg; in series [1] (curative only at this toxic dose, read-out: curative dose, suppressive test) it was 640 mg/kg. Further, the “suppressive activity in words” value in series [1] is reported as “very weak activity at non-toxic dose levels”. The ΔMST came out at 9 days in series [1] (setting [5]); 10 days in series [1] (Table 1, P. berghei, Rane Mouse Test, 320 mg/kg); 9 days in series [1] (Table 4, 160 mg/kg); 10 days in series [1] (Table 4, 320 mg/kg). Further, in series [2], the “radical curative activity compared with primaquine, in words” value was “comparable to primaquine and somewhat greater in potentcy; also recorded: slightly more effective than primaquine”. The “radical curative activity in words” value in series [2] (0.316 mg/kg) was “inactive”. The Cures in series [2] (1.0 mg/kg) is 100%. Also, the “Radical Curative Activity, Cures (C)” value in series [2] (setting [6]) was 0/4; in series [2] (P. cynomolgi, 1.0 mg/kg (× 7)) it was 2/2.
For the molecule `COc1cc(NC(C)CCCN)c2ncccc2c1Oc1ccc(F)cc1` (stereo not drawn) [5-(4-Fluorophenoxy)primaquine citrate, 5-(4-fluorophenoxy)-primaquine], the ΔMST worked out at 7.0 days in series [1] (Table 1, P. berghei, Rane Mouse Test, 80 mg/kg) and 9 days in series [1] (setting [5]). Moreover, the “suppressive activity in words” value in series [1] (setting [7]) was “active (and non-toxic) in mice at the high dose levels of 320 and 640 mg/kg”; in series [1] (setting [8]) it was “not an effective suppressive drug”. Moreover, the “Radical Curative Activity, Cures (C)” value is listed as 0/2 in series [2] (setting [6]); 1/3 in series [2] (P. cynomolgi, 1.0 mg/kg (× 7)); 1/1 in series [2] (P. cynomolgi, 3.16 mg/kg (× 7)). Also, the results for the “radical curative activity compared with primaquine, in words” value in series [2] (setting [7]) and in series [2] (setting [8]) were “no more active than primaquine in the Rhesus model as a radical curative drug” and “not significantly better than that of primaquine”, respectively.
In the case of `COc1cc(NC(C)CCCN)c2nc(O)cc(C)c2c1Oc1cccc(C(F)(F)F)c1` (stereo not drawn) [Analog 1], in series [1] (Table 8, P. berghei), the Activity in words entry is recorded as “Inactive” and the Toxicity in words entry is “non-toxic”.
As for `COc1cc(NC(C)CCCN)c2nc(Oc3ccc(Cl)cc3)cc(C)c2c1Oc1cccc(C(F)(F)F)c1` (stereo not drawn) [Analog 2], in series [1] (Table 8, P. berghei), the Activity in words entry was “Inactive” and the Toxicity in words entry is on record as “non-toxic”.
As for `COc1cc(NC(C)CCCN)c2nc(OCc3ccc(Cl)cc3)cc(C)c2c1Oc1cccc(C(F)(F)F)c1` (stereo not drawn) [Analog 3], in series [1] (Table 8, P. berghei), the Activity in words result is listed as “Inactive” and the Toxicity in words entry is recorded as “non-toxic”.
Regarding `COc1cc(NC(C)CCCN)c2nc(Cl)cc(C)c2c1Oc1cccc(C(F)(F)F)c1` (stereo not drawn) [Analog 4], the “Cures (C)” value in series [1] (Table 8, number of 5 mice, 160 mg/kg) was 1; in series [2] (P. cynomolgi, 0.1 mg/kg (×7)), 0/1; in series [2] (P. cynomolgi, 0.316 mg/kg (×7)) it was 1/2; in series [2] (P. cynomolgi, 1.0 mg/kg (×7)) it was 2/2.
`COc1cc(NC(C)CCCN)c2nccc(C)c2c1Oc1cccc(C(F)(F)F)c1.O=C(O)CCC(=O)O` (stereo not drawn) [Comparative Compound, 8-[(4-amino-1-methylbutyl)amino]-6-methoxy-4-methyl-5-(3-trifluoromethylphenoxy)quinoline succinate]: the ΔMST in series [1] (Table 4, 5 mg/kg) turned out to be 6 days; in series [1] (Table 4, 10 mg/kg), 4 days; in series [1] (Table 4, 20 mg/kg), 10 days. Also, the Cures is listed as 0/2 in series [2] (Table 2, P. cynomolgi, Rhesus, 0.0316 mg/kg × 7 of salt); 0/2 in series [2] (Table 2, P. cynomolgi, Rhesus, 0.10 mg/kg × 7 of salt); 2/2 in series [2] (Table 2, P. cynomolgi, Rhesus, 0.316 mg/kg × 7 of salt); 2/2 in series [2] (Table 2, P. cynomolgi, Rhesus, 1.0 mg/kg × 7 of salt); 1/3 in series [3] (1 mg/kg × 3 of base); 5/5 in series [3] (2 mg/kg × 3 of base). Further, the Cures in series [3] (4 mg/kg × 3 of base) was 4/4; in series [3] (16 mg/kg × 3 of base), 3/3; with P. berghei yoelli (2.5 mg/kg of salt), 6/15; with P. berghei yoelli (10 mg/kg of salt), 8/20; in the series on P. berghei yoelli (40 mg/kg of salt), 13/15; in the series with P. berghei yoelli (160 mg/kg of salt), 5/5. Further, in series [2] (Table 2, ratio of molar ED50, relative to primaquine), the “Molar Primaquine Index by Regression Analysis” value came out at 6.8. Further, the “LD50 (95% Confidence Limit)” value in series [4] (female, I.P.) is on record as 54 (42-71) mg/kg (Salt); in series [4] (female, oral) it was 401 (368-447) mg/kg (Salt); in series [4] (male, I.P.), 86 (65-109) mg/kg (Salt). Also, the “increase of peak methemoglobin level versus Compound X” value with methemoglobin (Table 7, equimolar doses) came to 56%. In the series on methemoglobin (Table 7, equimolar doses), the “peak level of methemoglobin” value was 25%. The “Peak % MHb” value with methemoglobin (setting [9]) was determined as 25.3 ± 8.30%. The “Slope of MHb Formation” value with methemoglobin (setting [9]) was 0.55 ± 0.28. Further, the “Time of Peak MHb” value in the series with methemoglobin (setting [9]) came to 9.00 ± 1.73 days. In addition, the “MHb Disappearance Half-Time” value with methemoglobin (oral capsule, days 0-3, 3 mg/kg primaquine base per day or molar equivalent, no difference in the means) came to 9.14 ± 2.42 days. Besides, the “MHb Production as AUC Corrected for Baseline” value with methemoglobin (total methemoglobin production, oral capsule, days 0-3, 3 mg/kg primaquine base per day or molar equivalent, means differ significantly (p <.05)) is recorded as 14,566 ± 5,475 mg of MHb/ml of blood/hr.

Source of the values: US4617394A, “4-methyl-5-(unsubstituted and substituted phenoxy)-2,6-dimethoxy-8-(aminoalkylamino) quinolines” (priority 1985, dated 1986).
